We go through 35 compounds from article PMC3179844 (Chemmedchem, 2011).

The target of one data set is human 11β-HSD1 (Homo sapiens, UniProt P28845). Nature of the data set: Cellular 11β-HSD1 inhibition assay. Particulars: for inhibition at 1 µM: HEK293, read-out: Percent inhibition measured at 1 μM.
A short description of data set [1]: Metabolism studies in human liver microsomes. As to conditions: for half-life: human liver microsomes, 37 °C, NADPH, 40 min, mean of two measurements. Format: in vitro ADME. A general note: Liver microsomes are vesicles of endoplasmic reticulum, rich in cytochrome P450 enzymes.
The target in another data set is mouse 11β-HSD1 (Mus musculus, UniProt P50172). The experiment in a line: Cellular 11β-HSD1 inhibition, mouse enzyme. In kind it is cell-based. Particulars: mean of three measurements.
Setting [2] is: ratio of IC50 values, human 11β-HSD1.

Marks after values point to notes of the source that are not given here.

human 11β-HSD1, sequence (P28845 whole entry): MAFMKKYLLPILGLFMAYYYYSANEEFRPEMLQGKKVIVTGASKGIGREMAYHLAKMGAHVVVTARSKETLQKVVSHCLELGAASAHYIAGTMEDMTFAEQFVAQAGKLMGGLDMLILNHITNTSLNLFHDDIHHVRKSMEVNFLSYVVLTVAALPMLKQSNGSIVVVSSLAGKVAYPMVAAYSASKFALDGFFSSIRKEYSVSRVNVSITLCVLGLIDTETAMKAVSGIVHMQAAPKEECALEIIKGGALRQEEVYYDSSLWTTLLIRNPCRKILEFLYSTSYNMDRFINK
mouse 11β-HSD1, sequence (P50172 whole entry): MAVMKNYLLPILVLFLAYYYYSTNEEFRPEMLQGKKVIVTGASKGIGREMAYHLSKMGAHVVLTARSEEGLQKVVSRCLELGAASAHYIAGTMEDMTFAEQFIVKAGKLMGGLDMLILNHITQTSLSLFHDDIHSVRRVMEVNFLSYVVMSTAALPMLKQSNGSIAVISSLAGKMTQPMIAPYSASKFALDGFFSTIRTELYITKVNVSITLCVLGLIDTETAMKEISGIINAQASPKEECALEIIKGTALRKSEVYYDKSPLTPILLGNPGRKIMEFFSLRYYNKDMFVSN

Broadly, the melting point is the temperature of the solid-liquid transition. As for `Cc1cccc(S(=O)(=O)CC(=O)C23CC4CC(CC(C4)C2)C3)n1` [Compound 20, 1-(Adamantan-1-yl)-2-(6-methylpyridine-2-sulfonyl)ethan-1-one], the melting point is 151 to 152 °C.
The compound `O=C(Cc1ccccn1)NCC(=O)C12CC3CC(CC(C3)C1)C2` [Compound 60, N-[2-(Adamantan-1-yl)-2-oxoethyl]-2-(pyridin-2-yl)acetamide] came in with a melting point of 137 to 139 °C.
In turn, `O=C(COc1cccnc1Cl)C12CC3CC(CC(C3)C1)C2` [Compound 10, 1-(Adamantan-1-yl)-2-[(2-chloropyridin-3-yl)oxy]ethan-1-one] displayed a melting point of 125 to 128 °C.
The same measure, in the same setting: with `O=C(NCC(=O)C12CC3CC(CC(C3)C1)C2)c1ccccn1` [Compound 56, N-[2-(Adamantan-1-yl)-2-oxoethyl]pyridine-2-carboxamide] the figure was 135 to 136 °C.
With “6-{[2-(Adamantan-1-yl)-2-oxoethyl]sulfanyl}-N-methylpyridine-3-carboxamide [Compound 25]”, the “Percent inhibition measured at 1 μM” value on human 11β-HSD1 (1 μM, HEK293/HSD11B1 cells, mean of two measurements) was found to be 73 % ^[b].
`NC(=O)c1ccc(SCC(=O)C23CC4CC(CC(C4)C2)C3)nc1` [Compound 24, 6-{[2-(Adamantan-1-yl)-2-oxoethyl]sulfanyl}pyridine-3-carboxamide] showed a melting point of 172 to 174 °C.
By inhibition is commonly meant the relative decrease from the control value, in per cent. `O=C(COCc1ccc(C(F)(F)F)nc1)C12CC3CC(CC(C3)C1)C2` [Compound 34, 1-(Adamantan-1-yl)-2-{[6-(trifluoromethyl)pyridin-3-yl]methoxy}ethan-1-one] had a melting point of 106 to 109 °C. On human 11β-HSD1, the inhibition at 1 µM came out at 33%.
Compound `O=C(COc1cccc(Cl)n1)C12CC3CC(CC(C3)C1)C2` [Compound 7, 1-(Adamantan-1-yl)-2-[(6-chloropyridin-2-yl)oxy]ethan-1-one] had a melting point of 90 to 93 °C.
`O=C(CS(=O)(=O)c1ccncc1)C12CC3CC(CC(C3)C1)C2` [Compound 21, 1-(Adamantan-1-yl)-2-(pyridine-4-sulfonyl)ethan-1-one] came in with a melting point of 143 to 144 °C.
On the same count and under the same terms, the same measure for `O=C(COc1ccc(C(F)(F)F)cn1)C12CC3CC(CC(C3)C1)C2` [Compound 8, 1-(Adamantan-1-yl)-2-{[5-(trifluoromethyl)pyridin-2-yl]oxy}ethan-1-one]: 102 to 104 °C.
Regarding `ON=C(COCc1cccnc1)C12CC3CC(CC(C3)C1)C2` [Compound 36, N-[1-(Adamantan-1-yl)-2-(pyridin-3-ylmethoxy)ethylidene]hydroxylamine], the melting point fell in the range of 115 to 117 °C. Besides, the “inhibition at 1 μM (in words)” value at human 11β-HSD1 (1 μM, HEK293/HSD11B1 cells) is listed as “none of the oxime compound shows any significant inhibition”.
Compound `O=C(CS(=O)(=O)Cc1ccc(C(F)(F)F)nc1)C12CC3CC(CC(C3)C1)C2` [Compound 52, 1-(Adamantan-1-yl)-2-({[6-(trifluoromethyl)pyridin-3-yl]methyl}sulfonyl)ethan-1-one] yielded a melting point of 87 to 89 °C. On human 11β-HSD1, the inhibition at 1 µM is 54%.
For `O=C(Cc1cccnc1)NCC(=O)C12CC3CC(CC(C3)C1)C2` [Compound 61, N-[2-(Adamantan-1-yl)-2-oxoethyl]-2-(pyridin-3-yl)acetamide], the melting point was 115 to 117 °C.
What is called half-life is the time in which the quantity being followed falls by half. Read a low half-life as fast loss. The microsomal CLint is the capacity of the preparation to metabolise the compound, expressed as a volume cleared per time. A word on the IC50: it is the concentration that gives 50% inhibition. Read a low IC50 as inhibition by little substance. On to `O=C(C[S+]([O-])c1ccccn1)C12CC3CC(CC(C3)C1)C2` (stereo not drawn) [Compound 16, 1-(Adamantan-1-yl)-2-(pyridine-2-sulfinyl)ethan-1-one], for which the melting point was in the range of 66 to 68 °C. In addition, the half-life in data set [1] came to 20 min. Further, the microsomal CLint in data set [1] (human, liver microsomes) stood at 31 µL/min/mg. Moreover, the half-life in data set [1] (human, liver microsomes, Half-life) lay in the range of 20 to 30 min. Also, the concentration for half-maximal inhibition (IC50) at mouse 11β-HSD1 came to 43 nM.
Consider `O=C(CSCc1ccc(C(F)(F)F)nc1)C12CC3CC(CC(C3)C1)C2` [Compound 48, 1-(Adamantan-1-yl)-2-({[6-(trifluoromethyl)pyridin-3-yl]methyl}sulfanyl)ethan-1-one], for which the melting point is 80 to 82 °C. On human 11β-HSD1, the inhibition at 1 µM was 20%.
In turn, `Cc1cccc(OCC(=O)C23CC4CC(CC(C4)C2)C3)n1` [Compound 6, 1-(Adamantan-1-yl)-2-[(6-methylpyridin-2-yl)oxy]ethan-1-one] yielded a melting point of 85 to 87 °C. The compound further yielded a half-inhibitory concentration (IC50) against human 11β-HSD1 (IC50, human 11β-HSD1, HEK293/HSD11B1 cells) of 3100 nM.
As to `O=C(COc1cccnc1)C12CC3CC(CC(C3)C1)C2` [Compound 12, 1-(Adamantan-1-yl)-2-(pyridin-3-yloxy)ethan-1-one], the melting point fell in the range of 73 to 75 °C. Also, on mouse 11β-HSD1, inhibition was half-maximal at 160 nM (IC50).
`O=C(CSCc1cccnc1)C12CC3CC(CC(C3)C1)C2` [Compound 38, 1-(Adamantan-1-yl)-2-[(pyridin-3-ylmethyl)sulfanyl]ethan-1-one] returned a melting point of 45 to 47 °C.
`Cc1ccc(OCC(=O)C23CC4CC(CC(C4)C2)C3)cn1` [Compound 11, 1-(Adamantan-1-yl)-2-[(6-methylpyridin-3-yl)oxy]ethan-1-one] showed a melting point of 86 to 87 °C. The “fold improvement in activity compared with the 2-pyridyl analogue 6” value on human 11β-HSD1 (setting [2]) amounted to 38 fold.
For the compound `O=C(CSCc1ccc(Cl)nc1)C12CC3CC(CC(C3)C1)C2` [Compound 49, 1-(Adamantan-1-yl)-2-{[(6-chloropyridin-3-yl)methyl]sulfanyl}ethan-1-one], the melting point lay in the range of 88 to 90 °C. In addition, the inhibition at 1 µM at human 11β-HSD1 was 31%.
`Cc1cccc([S+]([O-])CC(=O)C23CC4CC(CC(C4)C2)C3)n1` (stereo not drawn) [Compound 17, 1-(Adamantan-1-yl)-2-(6-methylpyridine-2-sulfinyl)ethan-1-one] came in with a melting point of 75 to 76 °C. On mouse 11β-HSD1, the IC50 worked out at 68 nM.
Take `O=C(CSc1ccc(C(F)(F)F)cn1)C12CC3CC(CC(C3)C1)C2` [Compound 22, 1-(Adamantan-1-yl)-2-{[5-(trifluoromethyl)pyridin-2-yl]sulfanyl}ethan-1-one]: the melting point lay within 141 to 142 °C. In addition, the “fold reduction in activity compared with the unsubstituted derivative 13” value on human 11β-HSD1 (setting [2]) is 51 fold.
Take `O=C(O)c1ccc(SCC(=O)C23CC4CC(CC(C4)C2)C3)nc1` [Compound 23, 6-{[2-(Adamantan-1-yl)-2-oxoethyl]sulfanyl}pyridine-3-carboxylic acid]: the melting point is 174 to 176 °C.
As to `Cc1cccc(C(=O)NCC(=O)C23CC4CC(CC(C4)C2)C3)n1` [Compound 57, N-[2-(Adamantan-1-yl)-2-oxoethyl]-6-methylpyridine-2-carboxamide], the melting point was 110 to 111 °C.
For the compound `O=C(CSc1ccncc1)C12CC3CC(CC(C3)C1)C2` [Compound 15, 1-(Adamantan-1-yl)-2-(pyridin-4-ylsulfanyl)ethan-1-one], the melting point is 114 to 115 °C.
For the compound `ON=C(COCc1ccccn1)C12CC3CC(CC(C3)C1)C2` [Compound 35, N-[1-(Adamantan-1-yl)-2-(pyridin-2-ylmethoxy)ethylidene]hydroxylamine], the “inhibition at 1 μM (in words)” value at human 11β-HSD1 (1 μM, HEK293/HSD11B1 cells) is on record as “none of the oxime compound shows any significant inhibition”.
`O=C(C[S+]([O-])Cc1ccccn1)C12CC3CC(CC(C3)C1)C2` (stereo not drawn) [Compound 40, 1-(Adamantan-1-yl)-2-[(pyridin-2-ylmethyl)sulfinyl]ethan-1-one] yielded a melting point of 87 to 88 °C. The same compound gave an IC50 against mouse 11β-HSD1 of 248 nM.
`CCNC(=O)c1ccc(SCC(=O)C23CC4CC(CC(C4)C2)C3)nc1` [Compound 26, 6-{[2-(Adamantan-1-yl)-2-oxoethyl]sulfanyl}-N-ethylpyridine-3-carboxamide] displayed a melting point of 136 to 137 °C.
`CN(C)C(=O)c1ccc(SCC(=O)C23CC4CC(CC(C4)C2)C3)nc1` [Compound 27, 6-{[2-(Adamantan-1-yl)-2-oxoethyl]sulfanyl}-N,N-dimethylpyridine-3-carboxamide] had a melting point of 63 to 65 °C.
Consider `O=C(CSCc1ccccn1)C12CC3CC(CC(C3)C1)C2` [Compound 37, 1-(Adamantan-1-yl)-2-[(pyridin-2-ylmethyl)sulfanyl]ethan-1-one], for which the melting point fell in the range of 38 to 39 °C.
Compound `Cc1cccc(SCC(=O)C23CC4CC(CC(C4)C2)C3)n1` [Compound 14, 1-(Adamantan-1-yl)-2-[(6-methylpyridin-2-yl)sulfanyl]ethan-1-one] returned a melting point of 116 to 117 °C. In addition, the inhibition at 1 µM on human 11β-HSD1 came out at 70%.
Regarding `O=C(COc1cncc(Cl)c1)C12CC3CC(CC(C3)C1)C2` [Compound 9, 1-(Adamantan-1-yl)-2-[(5-chloropyridin-3-yl)oxy]ethan-1-one], the melting point was in the range of 127 to 128 °C.
`O=C(CS(=O)(=O)c1ccccn1)C12CC3CC(CC(C3)C1)C2` [Compound 19, 1-(Adamantan-1-yl)-2-(pyridine-2-sulfonyl)ethan-1-one] displayed a melting point of 129 to 131 °C.
Take `O=C(NCC(=O)C12CC3CC(CC(C3)C1)C2)c1cccnc1` [Compound 58, N-[2-(Adamantan-1-yl)-2-oxoethyl]pyridine-3-carboxamide]: the melting point lay within 114 to 115 °C.
Same read-out and setting: the same measure for `O=C(NCC(=O)C12CC3CC(CC(C3)C1)C2)c1ccncc1` [Compound 59, N-[2-(Adamantan-1-yl)-2-oxoethyl]pyridine-4-carboxamide]: 147 to 149 °C.
